Source: patent publication US20090298820A1, “3-SUBSTITUTED-1H-PYRROLO[2,3-B]PYRIDINE AND 3-SUBSTITUTED-1H-PYRROLO[3,2-B]PYRIDINE COMPOUNDS, THEIR USE AS MTOR KINASE AND PI3 KINASE INHIBITORS, AND THEIR SYNTHESES” (Wyeth, priority 2008, published 2009)

Key:
Format in all cases: biochemical
PI3Kα = PI3Kα (Homo sapiens, UniProt P42336); assay: PI3K-alpha fluorescence polarization assay; conditions: read-out: PI3Kα Median IC50
mTOR = mTOR (Homo sapiens, UniProt P42345); assay: mTOR enzyme assay (DELFIA format, His6-S6K substrate); conditions: read-out: mTOR Kinase Median IC50
PI3Kγ = PI3Kγ (Homo sapiens, UniProt P48736); assay: PI3K-gamma fluorescence polarization assay; conditions: read-out: PI3Kγ Median IC50
PI3Kγ, sequence (P48736 whole entry, species assumed): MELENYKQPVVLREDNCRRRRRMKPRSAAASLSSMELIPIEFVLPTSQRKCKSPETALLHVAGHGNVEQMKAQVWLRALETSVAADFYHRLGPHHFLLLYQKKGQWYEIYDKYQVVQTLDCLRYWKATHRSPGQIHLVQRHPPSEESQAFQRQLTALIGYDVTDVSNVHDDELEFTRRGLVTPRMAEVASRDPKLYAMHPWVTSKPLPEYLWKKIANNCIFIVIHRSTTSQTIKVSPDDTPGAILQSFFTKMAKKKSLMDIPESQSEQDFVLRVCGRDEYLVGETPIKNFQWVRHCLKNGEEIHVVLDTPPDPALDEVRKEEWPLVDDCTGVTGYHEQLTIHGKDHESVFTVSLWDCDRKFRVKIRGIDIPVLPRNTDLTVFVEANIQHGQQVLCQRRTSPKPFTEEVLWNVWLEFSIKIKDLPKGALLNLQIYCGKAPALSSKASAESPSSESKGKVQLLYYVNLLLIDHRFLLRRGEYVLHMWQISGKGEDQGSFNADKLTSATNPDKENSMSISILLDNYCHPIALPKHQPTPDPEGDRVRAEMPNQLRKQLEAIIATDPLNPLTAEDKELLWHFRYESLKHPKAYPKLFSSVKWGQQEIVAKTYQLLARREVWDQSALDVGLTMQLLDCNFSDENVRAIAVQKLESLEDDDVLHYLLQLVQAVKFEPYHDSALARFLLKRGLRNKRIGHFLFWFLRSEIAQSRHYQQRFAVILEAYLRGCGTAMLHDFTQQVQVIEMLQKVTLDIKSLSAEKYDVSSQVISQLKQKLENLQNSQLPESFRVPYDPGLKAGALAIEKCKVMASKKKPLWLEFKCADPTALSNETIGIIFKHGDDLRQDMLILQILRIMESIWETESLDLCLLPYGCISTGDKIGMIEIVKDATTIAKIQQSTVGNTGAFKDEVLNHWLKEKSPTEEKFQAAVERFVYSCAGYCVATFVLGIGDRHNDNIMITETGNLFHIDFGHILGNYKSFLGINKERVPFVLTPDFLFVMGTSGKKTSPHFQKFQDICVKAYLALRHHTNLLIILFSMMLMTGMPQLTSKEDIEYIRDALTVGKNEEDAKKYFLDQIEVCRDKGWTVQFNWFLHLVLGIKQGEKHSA

PI3Kα, sequence (P42336 whole entry, species assumed): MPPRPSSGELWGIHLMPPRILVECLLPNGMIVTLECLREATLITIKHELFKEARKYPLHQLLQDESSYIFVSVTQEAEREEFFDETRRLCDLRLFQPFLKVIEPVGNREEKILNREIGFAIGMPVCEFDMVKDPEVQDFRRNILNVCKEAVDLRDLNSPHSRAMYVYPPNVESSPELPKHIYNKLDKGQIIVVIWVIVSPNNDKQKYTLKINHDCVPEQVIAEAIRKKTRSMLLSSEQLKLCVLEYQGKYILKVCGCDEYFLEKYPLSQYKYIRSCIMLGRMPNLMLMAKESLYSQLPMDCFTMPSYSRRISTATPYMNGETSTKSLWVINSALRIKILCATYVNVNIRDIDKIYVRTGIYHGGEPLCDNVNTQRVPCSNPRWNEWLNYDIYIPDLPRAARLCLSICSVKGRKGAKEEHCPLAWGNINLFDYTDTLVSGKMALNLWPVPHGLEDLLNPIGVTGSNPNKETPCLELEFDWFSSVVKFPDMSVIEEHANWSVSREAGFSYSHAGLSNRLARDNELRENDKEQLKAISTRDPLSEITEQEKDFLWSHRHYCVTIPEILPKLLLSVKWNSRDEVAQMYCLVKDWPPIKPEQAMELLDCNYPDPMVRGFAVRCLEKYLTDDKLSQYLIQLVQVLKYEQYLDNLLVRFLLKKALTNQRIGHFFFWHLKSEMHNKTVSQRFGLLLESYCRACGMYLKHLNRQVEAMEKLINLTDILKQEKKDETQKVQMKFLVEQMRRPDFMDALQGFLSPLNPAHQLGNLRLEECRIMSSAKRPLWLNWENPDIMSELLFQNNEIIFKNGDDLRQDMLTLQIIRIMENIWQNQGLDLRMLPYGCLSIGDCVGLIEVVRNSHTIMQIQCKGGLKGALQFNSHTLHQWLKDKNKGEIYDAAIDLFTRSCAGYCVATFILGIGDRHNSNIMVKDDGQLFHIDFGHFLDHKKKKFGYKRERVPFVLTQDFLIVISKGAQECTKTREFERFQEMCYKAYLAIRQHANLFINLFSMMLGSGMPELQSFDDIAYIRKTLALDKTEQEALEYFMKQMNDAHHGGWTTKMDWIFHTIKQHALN
PI3Kα, sequence (P27986 whole entry partner, species assumed): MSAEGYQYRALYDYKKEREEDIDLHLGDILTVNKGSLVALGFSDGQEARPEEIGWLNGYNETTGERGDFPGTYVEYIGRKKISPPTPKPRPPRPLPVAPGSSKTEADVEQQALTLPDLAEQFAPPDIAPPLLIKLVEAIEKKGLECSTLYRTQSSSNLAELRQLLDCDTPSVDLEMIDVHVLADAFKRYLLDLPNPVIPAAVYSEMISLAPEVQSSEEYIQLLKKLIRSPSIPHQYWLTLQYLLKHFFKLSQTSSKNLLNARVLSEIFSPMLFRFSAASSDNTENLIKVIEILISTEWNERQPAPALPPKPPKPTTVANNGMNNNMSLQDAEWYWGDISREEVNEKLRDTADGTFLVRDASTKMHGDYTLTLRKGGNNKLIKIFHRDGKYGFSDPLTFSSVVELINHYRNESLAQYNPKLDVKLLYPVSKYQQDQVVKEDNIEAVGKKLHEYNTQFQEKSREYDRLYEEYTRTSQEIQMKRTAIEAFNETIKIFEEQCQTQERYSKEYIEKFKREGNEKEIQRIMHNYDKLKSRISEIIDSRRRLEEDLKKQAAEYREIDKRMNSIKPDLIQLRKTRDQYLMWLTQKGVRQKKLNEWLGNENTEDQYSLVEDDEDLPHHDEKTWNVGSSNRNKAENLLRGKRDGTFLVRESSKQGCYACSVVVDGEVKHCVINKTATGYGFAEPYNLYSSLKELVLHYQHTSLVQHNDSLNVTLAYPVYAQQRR

Row | Structure (SMILES) | IC50 (PI3Kα) [nM] | IC50 (mTOR) [nM] | IC50 (PI3Kγ) [nM]
1 | COCCN(C)C(=O)c1ccc(-c2ccnc3c2c(/C=C2\Oc4cccc(O)c4C2=O)cn3C)cc1 [Compound 175, 4-{3-[(Z)-(4-hydroxy-3-oxo-1-benzofuran-2(3H)-ylidene)methyl]-1-methyl-1H-pyrrolo[2,3-b]pyridin-4-yl}-N-(2-methoxyethyl)-N-methylbenzamide] | 73 | 0.9 | 152
2 | CCn1cc(/C=C2\Oc3ccc(NC(=O)Nc4cccnc4)cc3C2=O)c2c(-c3ccc(C(=O)N4CCN(CCO)CC4)cc3)ccnc21 [Compound 177, 1-[(2Z)-2-{[1-ethyl-4-(4-{[4-(2-hydroxyethyl)piperazin-1-yl]carbonyl}phenyl)-1H-pyrrolo[2,3-b]pyridin-3-yl]methylidene}-3-oxo-2,3-dihydro-1-benzofuran-5-yl]-3-pyridin-3-ylurea] | 2690 | 66 | 2360
3 | Cn1cc(/C=C2\Oc3ccc(NC(=O)Nc4cccnc4)cc3C2=O)c2c(-c3ccc(C(=O)N4CCOCC4)cc3)ccnc21 [Compound 178, 1-[(2Z)-2-({1-methyl-4-[4-(morpholin-4-ylcarbonyl)phenyl]-1H-pyrrolo[2,3-b]pyridin-3-yl}methylidene)-3-oxo-2,3-dihydro-1-benzofuran-5-yl]-3-pyridin-3-ylurea] | 1120 | 54.5 | 652
4 | CNC(=O)Nc1ccc2c(c1)C(=O)/C(=C/c1cn(C)c3nccc(-c4ccc(C(=O)N5CCOCC5)cc4)c13)O2 [Compound 179, 1-methyl-3-[(2Z)-2-({1-methyl-4-[4-(morpholin-4-ylcarbonyl)phenyl]-1H-pyrrolo[2,3-b]pyridin-3-yl}methylidene)-3-oxo-2,3-dihydro-1-benzofuran-5-yl]urea] | 249 | 15 | 578
5 | Cn1cc(/C=C2\Oc3cccc(O)c3C2=O)c2c(-c3ccc(S(=O)(=O)N4CCCCC4)cc3)ccnc21 [Compound 181, (2Z)-4-hydroxy-2-({1-methyl-4-[4-(piperidin-1-ylsulfonyl)phenyl]-1H-pyrrolo[2,3-b]pyridin-3-yl}methylidene)-1-benzofuran-3(2H)-one] | 123 | 58 | 1210
6 | Cn1cc(/C=C2\Oc3ccc(NC(=O)Nc4cccnc4)cc3C2=O)c2c(-c3ccccc3)ccnc21 [Compound 183, 1-{(2Z)-2-[(1-methyl-4-phenyl-1H-pyrrolo[2,3-b]pyridin-3-yl)methylidene]-3-oxo-2,3-dihydro-1-benzofuran-5-yl}-3-pyridin-3-ylurea] | 367 | 755 | 479
7 | CN1CCN(c2ccnc3c2c(/C=C2\Oc4ccc(NC(=O)Nc5cccnc5)cc4C2=O)cn3C)CC1 [Compound 184, 1-[(2Z)-2-{[1-methyl-4-(4-methylpiperazin-1-yl)-1H-pyrrolo[2,3-b]pyridin-3-yl]methylidene}-3-oxo-2,3-dihydro-1-benzofuran-5-yl]-3-pyridin-3-ylurea] | 632 | 83 | 484
8 | Cn1cc(/C=C2\Oc3ccc(NC(=O)Nc4cccnc4)cc3C2=O)c2c(N3CCOCC3)ccnc21 [Compound 185, 1-{(2Z)-2-[(1-methyl-4-morpholin-4-yl-1H-pyrrolo[2,3-b]pyridin-3-yl)methylidene]-3-oxo-2,3-dihydro-1-benzofuran-5-yl}-3-pyridin-3-ylurea] | 275 | 71 | 348
9 | CCn1cc(/C=C2\Oc3cccc(O)c3C2=O)c2c(-c3ccc(C(=O)N4CCN(CCO)CC4)cc3)ccnc21 [Compound 186, (2Z)-2-{[1-ethyl-4-(4-{[4-(2-hydroxyethyl)piperazin-1-yl]carbonyl}phenyl)-1H-pyrrolo[2,3-b]pyridin-3-yl]methylidene}-4-hydroxy-1-benzofuran-3(2H)-one] | 445 | 4.6 | 550
10 | Cn1cc(/C=C2\Oc3cccc(O)c3C2=O)c2c(-c3ccc(S(=O)(=O)N4CCCC4)cc3)ccnc21 [Compound 190, (2Z)-4-hydroxy-2-({1-methyl-4-[4-(pyrrolidin-1-ylsulfonyl)phenyl]-1H-pyrrolo[2,3-b]pyridin-3-yl}methylidene)-1-benzofuran-3(2H)-one] | 26 | 3.5 | 80
11 | Cn1cc(/C=C2\Oc3cccc(O)c3C2=O)c2c(-c3ccc(S(=O)(=O)N4CCOCC4)cc3)ccnc21 [Compound 191, (2Z)-4-hydroxy-2-({1-methyl-4-[4-(morpholin-4-ylsulfonyl)phenyl]-1H-pyrrolo[2,3-b]pyridin-3-yl}methylidene)-1-benzofuran-3(2H)-one] | 34 | 3 | 101
12 | CONC(=O)c1ccc(-c2ccnc3c2c(/C=C2\Oc4cccc(O)c4C2=O)cn3C)cc1 [Compound 192, 4-{3-[(Z)-(4-hydroxy-3-oxo-1-benzofuran-2(3H)-ylidene)methyl]-1-methyl-1H-pyrrolo[2,3-b]pyridin-4-yl}-N-methoxybenzamide] | 26 | 1 | 39
13 | CN(CCO)C(=O)c1ccc(-c2ccnc3c2c(/C=C2\Oc4cccc(O)c4C2=O)cn3C)cc1 [Compound 195, N-(2-hydroxyethyl)-4-{3-[(Z)-(4-hydroxy-3-oxo-1-benzofuran-2(3H)-ylidene)methyl]-1-methyl-1H-pyrrolo[2,3-b]pyridin-4-yl}-N-methylbenzamide] | 140 | 4.3 | 234
14 | CON(C)C(=O)c1ccc(-c2ccnc3c2c(/C=C2\Oc4cccc(O)c4C2=O)cn3C)cc1 [Compound 196, 4-{3-[(Z)-(4-hydroxy-3-oxo-1-benzofuran-2(3H)-ylidene)methyl]-1-methyl-1H-pyrrolo[2,3-b]pyridin-4-yl}-N-methoxy-N-methylbenzamide] | 41 | 1 | 66
15 | COCCCN(C)C(=O)C1CCN(c2ccnc3c2c(C=C2Oc4ccc(NC(=O)Nc5cccnc5)cc4C2=O)cn3C)CC1 [Compound 199, N-(3-methoxypropyl)-N-methyl-1-[1-methyl-3-({3-oxo-5-[(pyridin-3-ylcarbamoyl)amino]-1-benzofuran-2(3H)-ylidene}methyl)-1H-pyrrolo[2,3-b]pyridin-4-yl]piperidine-4-carboxamide] | 2240 | 12.5 | 2990
16 | COCCCNC(=O)C1CCN(c2ccnc3c2c(C=C2Oc4ccc(NC(=O)Nc5cccnc5)cc4C2=O)cn3C)CC1 [Compound 200, N-(3-methoxypropyl)-1-[1-methyl-3-({3-oxo-5-[(pyridin-3-ylcarbamoyl)amino]-1-benzofuran-2(3H)-ylidene}methyl)-1H-pyrrolo[2,3-b]pyridin-4-yl]piperidine-4-carboxamide] | > 10000 | 4.8 | > 10000
17 | Cn1cc(C=C2Oc3ccc(NC(=O)Nc4cccnc4)cc3C2=O)c2c(N3CCC(C(=O)NCC(N)=O)CC3)ccnc21 [Compound 202, N-(2-amino-2-oxoethyl)-1-[1-methyl-3-({3-oxo-5-[(pyridin-3-ylcarbamoyl)amino]-1-benzofuran-2(3H)-ylidene}methyl)-1H-pyrrolo[2,3-b]pyridin-4-yl]piperidine-4-carboxamide] | 5900 | 4 | > 10000
